“Also recorded” adds a separate entry of the source. Ends that are not written are not given here.
How the values were obtained:
primary lung fibroblasts [1] = conditions: for number of viable cells (Calcein-AM uptake): 1 to 1000 ng/mL, 24 hours
Protocol: The effect of IP-10-related peptides on viability of lung fibroblasts was evaluated. Primary lung fibroblasts from healthy patients (SC31 and SC45) were either left untreated or treated with various concentrations of peptides (1 to 1000 ng/mL) for 24 hours. Treatment for 30 minutes with 70% ethanol in water was used as a positive control for dead cells. The Molecular Probes LIVE/DEAD Viability/Cytotoxicity Kit for mammalian cells (Invitrogen) was used to stain live cells. Following the manufacturer's protocol, at the end of treatment, cells in 96-well plates were washed with PBS, and then incubated in 2 μM Calcein-AM solution for 45 minutes at room temperature. Following incubation, the cells were imaged under a fluorescence microscope using the GFP channel. For quantification, ImageJ was used to count the number of live cells per field.

cardiac fibroblasts (CF) = experiment: Real time quantitative PCR relative gene expression, cardiac fibroblasts; format: cell-based, mouse; conditions: peptide with CXCL10
From the text: (§1) CM and CF were isolated from wild type and CXCR3-null FVB neonatal mice. Following isolation, CM, CF, or CM/CF in both direct and indirect co-cultures were challenged with CM and CF activating growth factor transforming growth factor […]. Antagonist peptide treatments, CRF-5-3 and CRF-5-5, were given alone or in combination with CXCL10. To determine whether CRF-5-3 and CRF-5-5 block CXCL10 binding to its receptor, the ability of biotin-tagged CXCL10 and/or FITC-tagged CRF-5-5 to compete for binding to CM and CF was analyzed using flow cytometry. In vitro cellular function assays were assessed for migration, apoptosis, and extracellular matrix (ECM) secretion. Real time quantitative polymerase chain reaction was employed in order to determine modified relative gene expression of both CM and FB, following treatment.

cardiac fibroblasts [2] = experiment: P38 MAPK-dependent extracellular matrix production in cardiac fibroblasts; format: cell-based, mouse
From the text: as §1

cardiomyocytes (CM) = experiment: Real time quantitative PCR relative gene expression, cardiomyocytes; format: cell-based, mouse; conditions: peptide with CXCL10
From the text: as §1

[3] = test system: cardiac fibroblasts (CF) and cardiomyocytes (CM); experiment: In vitro cellular function assays on CM and CF (P38 signaling, motility, ECM); format: cell-based, mouse
From the text: as §1

CM/CF co-cultures = experiment: Histochemical and fluorescence analyses of ECM in CM/CF co-cultures; format: cell-based, mouse
From the text: as §1

cardiac fibroblasts [4] = experiment: Motility (scratch) assay, cardiac fibroblasts; format: cell-based, mouse
Protocol: (§2) Primary cardiac fibroblasts and cardiomyocytes were isolated from both wild-type and CXCR3−/− neonatal mouse pups. After washing in PBS, hearts were stirred for 5 minutes in 0.5% trypsin at 37° C. to dissociate cells into solution. The suspended cells were then transferred to DMEM containing 20% fetal bovine serum (FBS) on ice to inactivate trypsin activity, and dissociation was repeated twice more with fresh trypsin solution. Cells were then washed and plated into 6-well plates at 1.25×10^6 cells/well, suspended in cardiac cell media (DMEM containing 7.5% dialyzed FBS and 1% antibiotic/antimitotic solution). After three hours, adhered fibroblasts were separated from the unattached cardiomyocytes through resuspension of the cells, and cardiomyocytes were plated separately at a density of 5×10^5 cells/ml.
(§3) To determine the effect of IP-10p on TGFβ1-induced cell migration, motility assays were performed on cardiac fibroblasts, cardiomyocytes, and co-cultures (2:1 ratio of cardiomyocytes to fibroblasts). Cells were plated at 2.5×10^5 cells/well in a 12-well uncoated plate in depleted media (DMEM containing 0.5% FBS) 24 hours before beginning the experiment. A pipette tip was used to create a scratch in the monolayer and the plate was washed twice with PBS to remove scraped cells. Cells were then treated with TGFβ1 (R&D Systems, Minneapolis, MN) alone (10 ng/mL) to stimulate fibrosis, CXCL10 alone (10 μM), IP-10p alone (10 μM), TGFβ1+CXCL10, TGFβ1+IP-10p, or left untreated. Images were taken immediately after scratching and 24 hours later, and Adobe Photoshop was used to quantify wound motility as distance between wound edges relative to the initial scratch width.

cardiomyocytes = experiment: Motility (scratch) assay, cardiomyocytes; format: cell-based, mouse; conditions: TGFβ1 10 ng/mL + agent 10 μM, 24 h; FIG. 1A
Protocol: as §2, §3

[5] = test system: co-cultures of cardiomyocytes and cardiac fibroblasts; experiment: Fibrotic extracellular matrix (ECM) secretion, co-cultures; format: cell-based, mouse; conditions: agent alone vs unstimulated cultures, 48 h
Protocol: as §2
Cardiac fibrosis is marked by overproduction of ECM proteins following injury. To observe the effect of IP-10p on secretion of these molecules, co-cultures of cardiomyocytes and cardiac fibroblasts were used to account for […] signaling taking place between the two dominant cell types in the heart. Fibroblasts and myocytes were plated at a 2:1 ratio using the same culture conditions and treatment groups described above for fibroblast activation. Following a 48-hour incubation with their respective treatments, cells were fixed, permeabilized and stained. Antibodies for collagen α1 type 1 (1:250, Santa Cruz Biotechnology SC8784, Dallas, TX), fibronectin (1:250, Abcam ab2413), and tenascin C (1:200, Abcam ab6346), followed by their appropriate secondary antibodies (Abcam ab150132, ab150077, and 150153, respectively), were used to determine fibrotic ECM secretion from the co-cultures. Expression of these molecules is expressed at CTCF and was quantified using MetaMorph® (Molecular Devices, Sunnyvale, CA).

cardiac fibroblasts [6] = experiment: Fibroblast activation assay (αSMA), cardiac fibroblasts; format: cell-based, mouse; conditions: TGFβ1 10 ng/mL vs untreated control
Protocol: as §2
Fibroblast activation to myofibroblasts is marked by αSMA expression within the cytoskeleton and serves as a marker to induce fibrosis. Cardiac fibroblasts were plated at 2,000 cells/well in an 8-well chamber slide and allowed to adhere overnight. After 24 hours, cells were washed and treated with: TGFβ1 alone (10 ng/ml), CXCL10 alone (10 μM), IP-10p alone (10 μM), TGFβ1+CXCL10, TGFβ1+IP-10p, or left untreated. After 24 hours, cells were fixed in ice cold methanol for 10 minutes and stained for αSMA (1:200, Abcam ab5694, Cambridge, UK) at 4° C. overnight, followed by a goat-anti-rabbit Alexa Fluor 594-conjugated secondary antibody (Abcam ab150080). After counterstaining with DAPI, cells were imaged, and fibroblast activation was measured using corrected total cell fluorescence (CTCF). These measurements were also performed in co-cultures of cardiomyocytes and cardiac fibroblasts (2:1 ratio)

primary lung fibroblasts [7] = experiment: qPCR of pro-fibrotic mRNAs in primary lung fibroblasts; format: cell-based, human; conditions: TGF-β 10 ng/mL, 24 h
Protocol: The next day, the medium was changed to quiescent medium and the cells were incubated in this medium for 24 hours. The following day, cells were either left untreated, treated with 10 ng/mL or 100 ng/mL of IP-10-1 (SEQ ID NO: 2), IP-10-2 (SEQ ID NO: 3) or IP-10-3 (SEQ ID NO: 4) peptide, treated with 10 ng/mL TGF-β, or treated with peptide and TGF-β for 24 hours. Total RNA was extracted using the Qiagen miRNeasy kit (Qiagen) and treated with DNase1, according to the manufacturer's instructions. RNA was then quantified and converted to cDNA using the Clontech RNA to cDNA EcoDry Double Primed Premix (Takara). qPCR was performed using PowerUp Sybr Green (Invitrogen) on an Applied Biosystems Quant Studio 3 instrument. Primers were from IDT and were designed using IDT Primer Quest and NCBI Primer Blast tools. The delta-delta Ct method was used to determine relative expression. GAPDH was used as a housekeeping gene.

primary lung fibroblasts [8] = experiment: Scratch assay, TGF-β-induced fibroblast migration; format: cell-based, human; conditions: TGF-β 10 ng/mL, 24 hours
Protocol: Next, studies were performed to evaluate the effect of IP-10 related peptides on migration of lung fibroblasts in response to TGF-β. Primary lung fibroblasts from healthy patients were plated in 24-well plates in complete medium and incubated overnight. The next day, the medium was changed to quiescent medium and cells were incubated in this medium for 24 hours. The following day, a plus-shaped scratch was made across the cells using a 1000 μL pipette tip. An image was taken at a location that could be identified later. After imaging, cells were either left untreated, treated with 100 ng/mL peptide alone, treated with 10 ng/mL TGF-β, or treated with peptide and TGF-β and incubated for 24 hours. At the end of the incubation time, the cells were imaged in the same location as in the original image to visualize closure of the scratch. The denuded area was calculated using ImageJ software and the percent wound closure was calculated for each treatment group.

## PESKVIKNLLKVASKERSKRSP [IP-10-1]
Primary lung fibroblasts [1]
  number of viable cells (Calcein-AM uptake): no impact

## FRFLFRGGRFLFRF [CRF-5-3]
Cardiac fibroblasts (CF)
  CXCL10-induced gene expression on FB: altered
Cardiac fibroblasts [2]
  CXCL10 inhibition of TGF-β-induced P38 MAPK-dependent extracellular matrix production: altered
Cardiomyocytes (CM)
  CXCL10-induced gene expression on CM: altered
[3]
  CXCL10-suppressed growth factor-induced ECM production: promote the disinhibition
  CXCL10-suppressed growth factor-induced intracellular P38 signaling: promote the disinhibition
  CXCL10-suppressed growth factor-induced motility: promote the disinhibition
CM/CF co-cultures
  ECM alterations following TGF-β and/or CXCL10 treatment: CRF-5-3-mediated alterations

## C-X-C chemokine ligand 10 [CXCL10]
Cardiac fibroblasts [4]; 10 μM alone, 24 h, compared to control
  motility of cardiac fibroblasts, agent alone: not altered
Cardiac fibroblasts [4]; FIG. 1B
  migration following TGF-β induction in cardiac fibroblasts: inhibit migration
Cardiac fibroblasts [4]; TGFβ1 10 ng/mL + agent 10 μM, 24 h
  reduction of motility of TGFβ1-treated fibroblasts: 30%
cardiomyocytes
  cardiomyocyte motility in the presence of TGFβ1: completely inhibited; also recorded: inhibit migration

## PESRVIKNLLRVVSKEKSRRSP [IP-10-2]
Primary lung fibroblasts [1]
  number of viable cells (Calcein-AM uptake): no impact

## CCO [ethanol, reference compound]
Primary lung fibroblasts [1]; 70% ethanol in water, 30 minutes
  Calcein-AM positive cells, positive control for dead cells: elimination of the detected Calcein-AM positive cells

## FAKAIKNFAKAVAKFA [IP-10-3, FAKAIKNFAKAVAKFA]
Primary lung fibroblasts [1]
  number of viable cells (Calcein-AM uptake): no impact

## transforming growth factor beta 1 [TGFβ1]
[5]
  collagen secretion, agent alone: significant upregulation
  fibronectin secretion, agent alone: significant upregulation
Cardiac fibroblasts [6]
  αSMA expression, TGFβ1 alone: drastically increased αSMA expression
Cardiac fibroblasts [4]; TGFβ1 10 ng/mL alone, 24 h
  increase of cardiac fibroblast motility relative to untreated cells: over 3 fold
Primary lung fibroblasts [7]
  expression of pro-fibrotic mRNAs, TGF-β alone: induced expression; also recorded: caused an induction
Primary lung fibroblasts [8]
  fibroblast migration (wound closure), TGF-β alone: significantly increased fibroblast migration; also recorded: significantly increased rate of wound closure

## FRWLWRGGRWLWRF [CRF-5-5]
Cardiac fibroblasts (CF)
  CXCL10-induced gene expression on FB: altered
Cardiac fibroblasts [2]
  CXCL10 inhibition of TGF-β-induced P38 MAPK-dependent extracellular matrix production: altered
Cardiomyocytes (CM)
  CXCL10-induced gene expression on CM: altered
[3]
  CXCL10-suppressed growth factor-induced ECM production: promote the disinhibition
  CXCL10-suppressed growth factor-induced intracellular P38 signaling: promote the disinhibition
  CXCL10-suppressed growth factor-induced motility: promote the disinhibition
  CXCL10 inhibition of TGF-β-induced matrix production: interfered

From patent US12465630B2, “Small peptide compositions and uses thereof” (University of Pittsburgh—Of the Commonwealth System of …, priority 2018, dated 2025)
